In patent publication US20050123476A1 (priority 2001, published 2005):

Experiments:
uPA = uPA (Homo sapiens, UniProt P00749); details: cited from earlier work
[1] = tested on: human cervix adenocarcinoma HeLa cells; format: cell-based
HT1080 cells = format: cell-based, human
HeLa cells = format: cell-based, human

## PQRGRSA
uPA
  uPA:tPA selectivity: 0.005

## PGSGKSA
uPA
  uPA:tPA selectivity: 121

## Aprotinin
[1]
  effect on killing of HeLa cells by PrAg-U2 plus FP59: protected
  effect on killing of HeLa cells by native PrAg plus FP59: had no effect

## CNC(=O)[C@@H](NC(=O)[C@H](CC(C)C)[C@H](O)C(=O)NO)C(C)(C)C [BB-2516, Marimastat]
HT1080 cells
  protection of HT1080 cells against WT-PA plus FP59: did not protect
  protection of HT1080 cells against challenge with PA-L1 and PA-L2 plus FP59: conferred clear protection

## PGSGRSA
uPA
  uPA:tPA selectivity: 20

## SGRSA
uPA
  cleavage by uPA, times more efficiently than the physiological cleavage site present in plasminogen: 1363 fold
  uPA:tPA selectivity: 20

## CNC(=O)[C@H](Cc1c[nH]c2ccccc12)NC(=O)[C@@H](CC(=O)NO)CC(C)C [GM6001]
HT1080 cells
  protection of HT1080 cells against WT-PA plus FP59: did not protect
  protection of HT1080 cells against challenge with PA-L1 and PA-L2 plus FP59: conferred clear protection

## PCPGRVVGG
uPA
  uPA:tPA selectivity: 3.0

## tranexamic acid [tranexainic acid]
HeLa cells
  effect on activation of pro-uPA by HeLa cells: strongly inhibited
  effect on binding/processing (activation) of PrAg-U2 on the HeLa cell surface: strongly inhibited
  effect on processing/activation of native PrAg by cells: not
